Test [1] concerns the target T1, human mutated 5HT2A receptor, AP-3 (Homo sapiens, UniProt P28223, T25N).
T1 construct: Inositol Phosphate Accumulation AP-3 IC50 Value (nM); other: several concentrations; IP3 % of Control; other: one concentration of 10 μM, triplicate; control without test compound
Kind of test: Inositol phosphate accumulation assay, AP-3.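 On all read-outs here: transfected 293 cells prelabeled with 3H-inositol, exposed to compound 120 min at 37 °C with LiCl and pargyline, inositol trisphosphates isolated by anion exchange and counted by scintillation.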 The format is cell-based. Conditions: for remaining activity at 10 µM: read-out: IP3 % of Control.

Test [2] addresses T2, wild type human 5HT2A receptor (Homo sapiens, UniProt P28223).
T2 construct: expressed in transfected cells; host or cells: COS-7 cells, pCMV vector
Kind of test: Competitive binding assay, [3H]LSD, WT 5HT2A.

[3] abbreviates: several concentrations, read-out: IP3 AP-3 IC50.
The mark [4] stands for this setting: competitive binding using LSD, read-out: WT 5HT2A LSD IC50.
Where [5] appears, read: one concentration of 10 μM, triplicate, control without test compound.

Molecules are shown by their SMILES. Values joined by “and” are separate entries in the source; they are usually repeats but may differ in a detail not shown here. Equal values may be shown once. Read-outs that look alike come from different tables or passages of the source.

T1 sequence (P28223 whole entry T25N, looked up): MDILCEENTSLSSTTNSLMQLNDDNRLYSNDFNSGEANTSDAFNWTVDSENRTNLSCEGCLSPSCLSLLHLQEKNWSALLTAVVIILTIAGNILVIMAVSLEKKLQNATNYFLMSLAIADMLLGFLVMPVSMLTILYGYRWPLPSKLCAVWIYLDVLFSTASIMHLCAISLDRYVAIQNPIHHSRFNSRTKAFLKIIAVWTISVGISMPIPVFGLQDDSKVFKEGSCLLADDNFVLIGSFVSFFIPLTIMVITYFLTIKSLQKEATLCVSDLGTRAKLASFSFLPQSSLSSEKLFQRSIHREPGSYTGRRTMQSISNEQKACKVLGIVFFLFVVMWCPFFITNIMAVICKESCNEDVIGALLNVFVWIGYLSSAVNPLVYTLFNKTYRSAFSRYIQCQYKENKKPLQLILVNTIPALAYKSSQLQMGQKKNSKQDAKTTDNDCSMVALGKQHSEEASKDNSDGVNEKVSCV
T2 sequence (P28223 whole entry T25N/H452Y): as the sequence (P28223 whole entry T25N, looked up) above, with H452Y counted along it

Usually IC50 stands for the point on the concentration scale where inhibition reaches its midpoint. For `Cn1cc(Br)c(-c2cccc(NC(=O)Cc3ccccc3F)c2)n1` [Compound 116176, N-[3-(4-bromo-1-methylpyrazol-3-yl)phenyl]-2-(2-fluorophenyl)acetamide], the half-maximal inhibitory concentration (IC50) in test [1] (setting [3]) is 0.129 µM; in test [2] (setting [4]), 662 nM.
As to `CN(C(=O)Nc1cccc(-c2nn(C)cc2Br)c1)c1ccc(OC(F)(F)F)cc1` [Compound 116113, [{3-(4-bromo-1-methylpyrazol-3-yl)phenyl}-amino]-N-methyl-N-[4-(trifluoromethoxy)phenyl]carboxamide], the half-inhibitory concentration (IC50) in test [1] (setting [3]) was found to be 0.193 µM; in test [2] (setting [4]), 2 nM.
Turning to `Cn1cc(Br)c(-c2cccc(NC(=O)Nc3ccccc3[N+](=O)[O-])c2)n1` [Compound 116089, {[3-(4-bromo-1-methylpyrazol-3-yl)phenyl]-amino}-N-(2-nitrophenyl)carboxamide], the remaining activity at 10 µM in test [1] (setting [5]) amounted to 27%. The IC50 in test [2] (setting [4]) was 238 nM.
On to `Cn1cc(Br)c(-c2cccc(NC(=O)Nc3ccccc3C(N)=O)c2)n1` [Compound 116145, 2-({[3-(4-bromo-1-methylpyrazol-3-yl)phenyl]-amino}carbonylamino)benzamide], for which the remaining activity at 10 µM in test [1] (setting [5]) worked out at 31%. Also, in test [2] (setting [4]), the IC50 is 7470 nM.
`Cn1cc(Br)c(-c2cccc(NC(=O)Nc3ccc(OC(F)(F)F)cc3)c2)n1` [Compound 103487, N-[3-(4-bromo-1-methylpyrazol-3-yl)phenyl][{(4-trifluoromethoxy)phenyl}amino]carboxamide]: the IC50 in test [1] (read-out: Inositol Phosphate Accumulation AP-3 IC50 Value) was 0.052 µM and 0.09 µM; in test [2] (1 nM [3H]LSD, COS7 membranes, read-out: Competitive Binding WT 5HT2A ([3H]LSD) IC50 Value), 46 nM.
With `CN(C)c1ccc(NC(=O)Nc2cccc(-c3nn(C)cc3Br)c2)cc1` [Compound 116122, N-[4-(dimethylamino)phenyl]{[3-(4-bromo-1-methylpyrazol-3-yl)phenyl]amino}carboxamide], the remaining activity at 10 µM in test [1] (setting [5]) is 9%. The IC50 in test [2] (setting [4]) was found to be 309 nM.
As for `Cn1cc(Br)c(-c2cccc(NC(=O)Nc3ccccc3C#N)c2)n1` [Compound 116148, {[3-(4-bromo-1-methylpyrazol-3-yl)phenyl]-amino}-N-(2-cyanophenyl)carboxamide], the remaining activity at 10 µM in test [1] (setting [5]) was 30%. In addition, the IC50 in test [2] (setting [4]) is 348 nM.
Turning to `Cn1cc(Br)c(-c2cccc(NC(=O)OC(C)(C)C)c2)n1` [Compound 116192], the figures for the half-inhibitory concentration (IC50) in test [1] (Inositol Phosphate Accumulation AP-3 IC50 Value (μM)) and in test [2] were 0.057 µM and 14 nM, respectively.
As to `COc1cccc(CC(=O)Nc2cccc(-c3nn(C)cc3Br)c2)c1` [Compound 116175, N-[3-(4-bromo-1-methylpyrazol-3-yl)phenyl]-2-(3-methoxyphenyl)acetamide], the IC50 in test [1] (setting [3]) came out at 0.108 µM; in test [2] (setting [4]), 625 nM.
As to `COc1ccc(CNC(=O)Nc2cccc(-c3nn(C)cc3Br)c2)cc1OC` [Compound 116183, N-[3-(4-bromo-1-methylpyrazol-3-yl)phenyl]-[{(3,4-dimethoxyphenyl)methyl}amino-]carboxamide], the IC50 in test [2] (setting [4]) was 1010 nM.
On to `COc1ccc(CCNC(=O)Nc2cccc(-c3nn(C)cc3Br)c2)cc1` [Compound 116194, N-[3-(4-bromo-1-methylpyrazol-3-yl)phenyl][{2-(4-methoxyphenyl)ethyl}amino]carboxamide], for which the IC50 in test [1] (setting [3]) turned out to be 0.032 µM; in test [2] (setting [4]) it was 61 nM.
With `Cc1ccccc1CNC(=O)Nc1cccc(-c2nn(C)cc2Br)c1` [Compound 116185, N-[3-(4-bromo-1-methylpyrazol-3-yl)phenyl][{(2-methylphenyl)methyl}amino]carboxamide], the IC50 in test [2] (setting [4]) stood at 769 nM.
As to `Cn1cc(Br)c(-c2cccc(NC(=O)Nc3ccccc3F)c2)n1` [Compound 116144, {[3-(4-bromo-1-methylpyrazol-3-yl)phenyl]-amino}-N-(2-fluorophenyl)carboxamide], the remaining activity at 10 µM in test [1] stood at 12%. The IC50 in test [2] (setting [4]) amounted to 37 nM.
With `COc1ccc(CNC(=O)Nc2cccc(-c3nn(C)cc3Br)c2)cc1` [Compound 116189, N-[3-(4-bromo-1-methylpyrazol-3-yl)phenyl][{(4-methoxyphenyl)methyl}amino]carboxamide], in test [2] (setting [4]), the IC50 stood at 102 nM.
With `Cn1cc(Br)c(-c2cccc(NC(=O)Cc3ccc([N+](=O)[O-])cc3)c2)n1` [Compound 116177, N-[3-(4-bromo-1-methylpyrazol-3-yl)phenyl]-2-(4-nitrophenyl)acetamide], the IC50 in test [1] (setting [3]) worked out at 0.061 µM; in test [2] (setting [4]), 108 nM.
With `Cc1cccc(NC(=O)Nc2cccc(-c3nn(C)cc3Br)c2)c1` [Compound 116112, [{3-(4-bromo-1-methylpyrazol-3-yl)phenyl}-amino]-N-(3-methylphenyl)carboxamide], in test [1], the remaining activity at 10 µM came out at 14%. The IC50 in test [2] (setting [4]) came out at 57 nM.
For `COc1ccc(NC(=O)Nc2cccc(-c3nn(C)cc3Br)c2)cc1` [Compound 116091, {[3-(4-bromo-1-methylpyrazol-3-yl)phenyl]-amino}-N-(4-methoxyphenyl)carboxamide] the same measures were 12% and 19 nM.
As for `Cn1cc(Br)c(-c2cccc(NC(=O)Nc3ccc(SC(F)(F)F)cc3)c2)n1` [Compound 116139, {[3-(4-bromo-1-methylpyrazol-3-yl)phenyl]-amino}-N-[4-(trifluoromethylthio)phenyl]carboxamide], in test [1], the remaining activity at 10 µM was 12%. Moreover, the IC50 in test [2] (setting [4]) amounted to 56 nM.
Consider `Cn1cc(Br)c(-c2cccc(NC(=O)Nc3ccccc3OC(F)(F)F)c2)n1` [Compound 116087, {[3-(4-bromo-1-methylpyrazol-3-yl)phenyl]-amino}-N-[2-(trifluoromethoxy)phenyl]carboxamide], for which the remaining activity at 10 µM in test [1] (setting [5]) was 11%. Further, the IC50 in test [2] (setting [4]) was found to be 200 nM.
With `Cn1cc(Br)c(-c2cccc(NC(=O)Nc3ccc(C(F)(F)F)cc3)c2)n1` [Compound 116097, {[3-(4-bromo-1-methylpyrazol-3-yl)phenyl]-amino}-N-[4-(trifluoromethyl)phenyl]carboxamide], the remaining activity at 10 µM in test [1] worked out at 11%. Also, the IC50 in test [2] (setting [4]) stood at 65 nM.
Regarding `Cn1cc(Br)c(-c2cccc(NC(=O)Cc3cccc(F)c3)c2)n1` [Compound 116174, N-[3-(4-bromo-1-methylpyrazol-3-yl)phenyl]-2-(3-fluorophenyl)acetamide], the IC50 in test [1] (setting [3]) was determined as 0.153 µM; in test [2] (setting [4]) it was 318 nM.
Regarding `Cc1ccccc1NC(=O)Nc1cccc(-c2nn(C)cc2Br)c1` [Compound 116092, {[3-(4-bromo-1-methylpyrazol-3-yl)phenyl]amino}-N-(2-methylphenyl)carboxamide], the remaining activity at 10 µM in test [1] (setting [5]) turned out to be 32%. In test [2] (setting [4]), the IC50 was 131 nM.
On to `CSc1ccc(NC(=O)Nc2cccc(-c3nn(C)cc3Br)c2)cc1` [Compound 116079, N-[3-(4-bromo-1-methylpyrazol-3-yl)phenyl][(4-methylthiophenyl)amino]carboxamide], for which the remaining activity at 10 µM in test [1] is 16%. Further, the IC50 came to 0.017 µM in test [1] (setting [3]) and 4 nM in test [2] (setting [4]).
Consider `COc1cc(CNC(=O)Nc2cccc(-c3nn(C)cc3Br)c2)cc(OC)c1OC` [Compound 116184, N-[3-(4-bromo-1-methylpyrazol-3-yl)phenyl]-[{(3,4,5-trimethoxyphenyl)methyl}amino]-carboxamide], for which, in test [2] (setting [4]), the IC50 was 2960 nM.
Take `Cn1cc(Br)c(-c2cccc(NC(=O)Cc3ccc(OC(F)(F)F)cc3)c2)n1` [Compound 116137, N-[3-(4-bromo-1-methylpyrazol-3-yl)phenyl]-2-[4-(trifluoromethoxy)-phenyl]acetamide]: the IC50 in test [2] (setting [4]) came to 106 nM.

The record behind these values is patent publication US7754866B2 (Arena Pharmaceuticals, Inc., priority 1997, dated 2010).
